Test system: mongrel dogs
Experiment: circulatory pharmacological effectiveness on narcotised dogs, intravenous
Type: in vivo, dog
[1] = dog i.v. ISDN/9c 1, 1d 0.5 mg/kg, 40 min
[2] = dog i.v. ISDN/9c 1, 1d 0.5 mg/kg, 50 min
[3] = dog i.v. ISDN/9c 1, 1d 0.5 mg/kg, 60 min
[4] = dog i.v. ISDN/9c 1, 1d 0.5 mg/kg, 90 min
[5] = dog i.v. ISDN/9c 1, 1d 0.5 mg/kg, 120 min
[6] = dog i.v. ISDN/9c 1, 1d 0.5 mg/kg, 150 min
[7] = dog i.v. ISDN/9c 1, 1d 0.5 mg/kg, 180 min
[8] = dog i.v., before administration (v)

## Cn1c(=O)c2c(ncn2CCCN[C@H]2CO[C@H]3[C@@H]2OC[C@@H]3O[N+](=O)[O-])n(C)c1=O [Example 1d, 5-(3-Theophyllin-7-ylpropyl)-amino-5-desoxy-1.4;3.6-dianhydro-L-iditol 2-nitrate]
[1]
  BFFem: blood flow in the A. femoralis referred to 20 kg body weight: 58.5 mL/min
  HF: heart frequency: 97.5
  HLL: heart capacity left, referred to 20 kg body weight: 0.43 W
  HLR: heart capacity right, referred to 20 kg body weight: 50.8 mW
  HZV: heart minute volume, referred to 20 kg body weight: 2.05 L/min
  SV: beat volume, referred to 20 kg body weight: 21.5 mL
  WAP: pulmonalis resistance, referred to 20 kg body weight: 0.50 U
  WFem: moralis resistance, referred to 20 kg body weight: 0.25 KU
  WTP: total peripheral resistance, referred to 20 kg body weight: 6.62 U
  dp/dt: rate of pressure increase in the left ventricle: 2193.7 mm.Hg/sec
[2]
  APdiast: diastolic aorta pressure: 85.9 mm.Hg
  APsyst: systolic aorta pressure: 135.9 mm.Hg
  BFFem: blood flow in the A. femoralis referred to 20 kg body weight: 62.2 mL/min
  HF: heart frequency: 96.2
  HLL: heart capacity left, referred to 20 kg body weight: 0.41 W
  HLR: heart capacity right, referred to 20 kg body weight: 47.3 mW
  HZV: heart minute volume, referred to 20 kg body weight: 1.93 L/min
  SV: beat volume, referred to 20 kg body weight: 20.5 mL
  WAP: pulmonalis resistance, referred to 20 kg body weight: 0.50 U
  WFem: moralis resistance, referred to 20 kg body weight: 0.25 KU
  WTP: total peripheral resistance, referred to 20 kg body weight: 7.24 U
  dp/dt: rate of pressure increase in the left ventricle: 2006.2 mm.Hg/sec
[3]
  APdiast: diastolic aorta pressure: 88.5 mm.Hg
  APsyst: systolic aorta pressure: 136.8 mm.Hg
  BFFem: blood flow in the A. femoralis referred to 20 kg body weight: 62.6 mL/min
  HF: heart frequency: 95.5
  HLL: heart capacity left, referred to 20 kg body weight: 0.39 W
  HLR: heart capacity right, referred to 20 kg body weight: 46.0 mW
  HZV: heart minute volume, referred to 20 kg body weight: 1.82 L/min
  LVEDP: end diastolic pressure in the left ventricle: 8.06 mm.Hg
  SV: beat volume, referred to 20 kg body weight: 19.4 mL
  WAP: pulmonalis resistance, referred to 20 kg body weight: 0.46 U
  WFem: moralis resistance, referred to 20 kg body weight: 0.26 KU
  WTP: total peripheral resistance, referred to 20 kg body weight: 7.90 U
  dp/dt: rate of pressure increase in the left ventricle: 1968.7 mm.Hg/sec
[4]
  APdiast: diastolic aorta pressure: 92.8 mm.Hg
  APsyst: systolic aorta pressure: 137.8 mm.Hg
  BFFem: blood flow in the A. femoralis referred to 20 kg body weight: 57.4 mL/min
  HF: heart frequency: 92.5
  HLL: heart capacity left, referred to 20 kg body weight: 0.34 W
  HLR: heart capacity right, referred to 20 kg body weight: 36.7 mW
  HZV: heart minute volume, referred to 20 kg body weight: 1.57 L/min
  LVEDP: end diastolic pressure in the left ventricle: 9.47 mm.Hg
  SV: beat volume, referred to 20 kg body weight: 17.4 mL
  WAP: pulmonalis resistance, referred to 20 kg body weight: 0.39 U
  WFem: moralis resistance, referred to 20 kg body weight: 0.29 KU
  WTP: total peripheral resistance, referred to 20 kg body weight: 9.39 U
  dp/dt: rate of pressure increase in the left ventricle: 1743.7 mm.Hg/sec
[5]
  APdiast: diastolic aorta pressure: 95.2 mm.Hg
  APsyst: systolic aorta pressure: 139.7 mm.Hg
  BFFem: blood flow in the A. femoralis referred to 20 kg body weight: 49.9 mL/min
  HF: heart frequency: 96.5
  HLL: heart capacity left, referred to 20 kg body weight: 0.35 W
  HLR: heart capacity right, referred to 20 kg body weight: 34.9 mW
  HZV: heart minute volume, referred to 20 kg body weight: 1.57 L/min
  LVEDP: end diastolic pressure in the left ventricle: 9.47 mm.Hg
  SV: beat volume, referred to 20 kg body weight: 17.0 mL
  WAP: pulmonalis resistance, referred to 20 kg body weight: 0.35 U
  WFem: moralis resistance, referred to 20 kg body weight: 0.36 KU
  WTP: total peripheral resistance, referred to 20 kg body weight: 9.56 U
  dp/dt: rate of pressure increase in the left ventricle: 1659.4 mm.Hg/sec
[6]
  APdiast: diastolic aorta pressure: 92.8 mm.Hg
  APsyst: systolic aorta pressure: 139.7 mm.Hg
  BFFem: blood flow in the A. femoralis referred to 20 kg body weight: 49.5 mL/min
  HF: heart frequency: 104.5
  HLL: heart capacity left, referred to 20 kg body weight: 0.35 W
  HLR: heart capacity right, referred to 20 kg body weight: 36.9 mW
  HZV: heart minute volume, referred to 20 kg body weight: 1.61 L/min
  LVEDP: end diastolic pressure in the left ventricle: 10.12 mm.Hg
  SV: beat volume, referred to 20 kg body weight: 15.9 mL
  WAP: pulmonalis resistance, referred to 20 kg body weight: 0.37 U
  WFem: moralis resistance, referred to 20 kg body weight: 0.37 KU
  WTP: total peripheral resistance, referred to 20 kg body weight: 8.10 U
  dp/dt: rate of pressure increase in the left ventricle: 1640.6 mm.Hg/sec
[7]
  APdiast: diastolic aorta pressure: 90.9 mm.Hg
  APsyst: systolic aorta pressure: 137.8 mm.Hg
  BFFem: blood flow in the A. femoralis referred to 20 kg body weight: 50.9 mL/min
  HF: heart frequency: 114.0
  HLL: heart capacity left, referred to 20 kg body weight: 0.37 W
  HLR: heart capacity right, referred to 20 kg body weight: 38.3 mW
  HZV: heart minute volume, referred to 20 kg body weight: 1.73 L/min
  LVEDP: end diastolic pressure in the left ventricle: 10.5 mm.Hg
  SV: beat volume, referred to 20 kg body weight: 15.5 mL
  WAP: pulmonalis resistance, referred to 20 kg body weight: 0.32 U
  WFem: moralis resistance, referred to 20 kg body weight: 0.32 KU
  WTP: total peripheral resistance, referred to 20 kg body weight: 8.13 U
  dp/dt: rate of pressure increase in the left ventricle: 1621.9 mm.Hg/sec
[8]
  APdiast: diastolic aorta pressure: 76.9 mm.Hg
  APsyst: systolic aorta pressure: 152.8 mm.Hg
  BFFem: blood flow in the A. femoralis referred to 20 kg body weight: 51.5 mL/min
  HF: heart frequency: 101.2
  HLL: heart capacity left, referred to 20 kg body weight: 0.50 W
  HLR: heart capacity right, referred to 20 kg body weight: 67.1 mW
  HZV: heart minute volume, referred to 20 kg body weight: 2.35 L/min
  LVEDP: end diastolic pressure in the left ventricle: 7.50 mm.Hg
  PAP: average pressure in the A. pulmonalis: 15.59 mm.Hg
  SV: beat volume, referred to 20 kg body weight: 23.4 mL
  WAP: pulmonalis resistance, referred to 20 kg body weight: 0.46 U
  WFem: moralis resistance, referred to 20 kg body weight: 0.29 KU
  WTP: total peripheral resistance, referred to 20 kg body weight: 5.78 U
  dp/dt: rate of pressure increase in the left ventricle: 1903.1 mm.Hg/sec
dog, in vivo, iv
  PRV: pressure in the right atrium: 3.09
iv, 0.5 mg/kg
  HF: heart frequency: 103.7
  dp/dt: rate of pressure increase in the left ventricle: 2306.2 mm.Hg/sec

— patent US4542137A, “Alkylaminodesoxy-1.4;3.6-dianhydrohexitol nitrates substituted by purine bases and pharmaceutical compositions” (priority 1980, dated 1985)
